# Measured values from patent US20070128217A1 (priority 2003, published 2007).
# How the values were obtained:
# [1] = test system: antibodies in sera from SARS patients (sera 1a, 1b, 2, 6, 37, 62, London, SARS-yellow, SARS-green); format: binding, human; design: Binding of serum 6 to linear peptides of protein X1 of SARS-CoV Urbani / Binding of serum 37 to linear peptides of protein X1 of SARS-CoV Urbani / Binding of serum 6 to looped/cyclic peptide (PEPSCAN-ELISA) / Binding of serum 37 to looped/cyclic peptide (PEPSCAN-ELISA) / Binding of serum 37 to looped/cyclic peptides of protein X1 of SARS-CoV Urbani / Binding of serum 6 to linear peptides of protein X2 / Binding of serum 37 to linear peptides of protein X2 / Binding of serum 37 to looped/cyclic peptides of protein X2 of SARS-CoV Urbani / Binding of serum 6 to linear peptides of protein M of SARS-CoV Urbani / Binding of serum 37 to linear peptides of protein M of SARS-CoV Urbani / Binding of serum 6 to looped/cyclic peptides of protein M of SARS-CoV Urbani / Binding of serum 37 to looped/cyclic peptides of protein M of SARS-CoV Urbani / Binding of serum 6 to linear peptides of protein X3 of SARS-CoV Urbani / Binding of serum 37 to linear peptides of protein X3 of SARS-CoV Urbani / Binding of serum 37 to looped/cyclic peptides of protein X3 of SARS-CoV Urbani / Binding of serum 6 to linear peptides of protein X4 of SARS-CoV Urbani / Binding of serum 37 to linear peptides of protein X4 of SARS-CoV Urbani / Binding of serum 37 to looped/cyclic peptides of protein X4 of SARS-CoV Urbani / Binding of serum 6 to linear peptides of protein X5 of SARS-CoV Urbani / Binding of serum 37 to linear peptides of protein X5 of SARS-CoV Urbani / Binding of serum 37 to looped/cyclic peptides of protein X5 of SARS-CoV Urbani / Binding of serum 6 to linear peptides of protein N of SARS-CoV Urbani / Binding of serum 37 to linear peptides of protein N of SARS-CoV Urbani / Binding of serum 6 to linear peptide (PEPSCAN-ELISA) / Binding of serum 1a to looped/cyclic peptides of protein N of SARS-CoV Urbani / Binding of serum 1b to looped/cyclic peptides of protein N of SARS-CoV Urbani / Binding of serum 2 to looped/cyclic peptides of protein N of SARS-CoV Urbani / Binding of serum 6 to looped/cyclic peptides of protein N of SARS-CoV Urbani / Binding of serum 37 to looped/cyclic peptides of protein N of SARS-CoV Urbani / Binding of serum 62 to looped/cyclic peptides of protein N of SARS-CoV Urbani / Binding of serum London to looped/cyclic peptides of protein N of SARS-CoV Urbani / Binding of serum SARS-green to looped/cyclic peptides of protein N of SARS-CoV Urbani: unit not given here
# [2] = test system: control sera (pooled serum of ten healthy LUMC hospital workers; commercial negative donor pooled serum from the Dutch bloodbank); format: binding, human; design: Binding of Control serum LUMC to linear peptides / Binding of Control serum Blood-bank to linear peptides / Binding of Control serum LUMC to looped peptides / Binding of Control Serum Blood-Bank to Looped peptides / Binding of Control serum LUMC to linear peptides of the protein M of SARS-CoV Urbani / Binding of Control serum Blood-bank to linear peptides of the protein M of SARS-CoV Urbani / Binding of Control serum LUMC to looped peptides of the protein M of SARS-CoV Urbani / Binding of Control Serum Blood-Bank to Looped peptides of the protein M of SARS-CoV Urbani: unit not given here
# [3] = test system: rabbit serum obtained by immunizing a rabbit with the SARS-CoV strain Frankfurt 1; format: binding; design: Binding of a rabbit serum to linear peptides / Binding of a rabbit serum to looped peptides / Rabbit serum linear peptides / Rabbit serum looped peptides / Binding of a rabbit serum to linear peptides of protein N of SARS-CoV Urbani (Rabbit serum linear peptides) / Binding of a rabbit serum to looped/cyclic peptides of protein N of SARS-CoV Urbani (Rabbit serum looped peptides): unit not given here
Sequence,Binding of serum 1a to linear peptides of protein X1 of SARS-CoV Urbani [1],Binding of serum 1a to looped/cyclic peptide (PEPSCAN-ELISA) [1],Binding of serum 1b to linear peptides of protein X1 of SARS-CoV Urbani [1],Binding of serum 1b to looped/cyclic peptide (PEPSCAN-ELISA) [1],Binding of serum 2 to linear peptides of protein X1 of SARS-CoV Urbani [1],Binding of serum 2 to looped/cyclic peptide (PEPSCAN-ELISA) [1],Binding of serum 6 to linear peptides of protein X1 of SARS-CoV Urbani [1],Binding of serum 6 to looped/cyclic peptide (PEPSCAN-ELISA) [1],Binding of serum 37 to linear peptides of protein X1 of SARS-CoV Urbani [1],Binding of serum 37 to looped/cyclic peptide (PEPSCAN-ELISA) [1],Binding of serum 62 to linear peptides of protein X1 of SARS-CoV Urbani [1],Binding of serum 62 to looped/cyclic peptide (PEPSCAN-ELISA) [1],Binding of serum London to linear peptides of protein X1 of SARS-CoV Urbani [1],Binding of serum London to looped/cyclic peptide (PEPSCAN-ELISA) [1],Binding of Control Serum Blood-Bank to Looped peptides [2],Binding of Control serum Blood-bank to linear peptides [2],Binding of Control serum LUMC to linear peptides [2],Binding of Control serum LUMC to looped peptides [2],Binding of a rabbit serum to linear peptides [3],Binding of a rabbit serum to looped peptides [3],also measured
AGMEAQFLYLYALIY,0.7,0.5,0.6,0.4,0.6,0.4,0.4,0.3,0.5,0.5,0.4,0.6,0.2,0.2,0.5,0.5,0.6,0.6,0.1,0.6,Binding of serum SARS-green to linear peptides of protein X1 of SARS-CoV Urbani [1]: 0.1; Binding of serum SARS-green to looped/cyclic peptide (PEPSCAN-ELISA) [1]: 0.2; Binding of serum SARS-yellow to linear peptides of protein X1 of SARS-CoV Urbani [1]: 0.2; Binding of serum SARS-yellow to looped/cyclic peptide (PEPSCAN-ELISA) [1]: 0.3
RWQLALYKGFQFICN,0.7,0.6,0.5,0.4,0.5,0.5,0.4,0.9,0.6,0.6,0.5,0.6,0.3,1.4,0.6,0.6,0.4,0.6,0.3,0.9,Binding of serum SARS-green to linear peptides of protein X1 of SARS-CoV Urbani [1]: 0.3; Binding of serum SARS-green to looped/cyclic peptide (PEPSCAN-ELISA) [1]: 0.3; Binding of serum SARS-yellow to linear peptides of protein X1 of SARS-CoV Urbani [1]: 0.2; Binding of serum SARS-yellow to looped/cyclic peptide (PEPSCAN-ELISA) [1]: 0.6
LYLYALIYFLQCINA,0.7,0.3,0.5,0.3,0.4,0.2,0.3,0.3,0.5,0.4,0.5,0.4,0.2,0.2,0.5,0.5,0.5,0.4,0.1,0.5,Binding of serum SARS-green to linear peptides of protein X1 of SARS-CoV Urbani [1]: 0.2; Binding of serum SARS-green to looped/cyclic peptide (PEPSCAN-ELISA) [1]: 0.2; Binding of serum SARS-yellow to linear peptides of protein X1 of SARS-CoV Urbani [1]: 0.5; Binding of serum SARS-yellow to looped/cyclic peptide (PEPSCAN-ELISA) [1]: 0.3
NRFLYIIKLVFLWLL,–,–,–,–,–,–,–,–,–,–,–,–,–,–,–,–,–,–,–,–,"Binding of serum 1a to linear peptides of protein M of SARS-CoV Urbani [1]: 0.7; Binding of serum 1b to linear peptides of protein M of SARS-CoV Urbani [1]: 0.5; Binding of serum 2 to linear peptides of protein M of SARS-CoV Urbani [1]: 0.5; Binding of serum 6 to linear peptides of protein M of SARS-CoV Urbani [1]: 0.3; Binding of serum 37 to linear peptides of protein M of SARS-CoV Urbani [1]: 0.7; Binding of serum 62 to linear peptides of protein M of SARS-CoV Urbani [1]: 0.7; Binding of serum London to linear peptides of protein M of SARS-CoV Urbani [1]: 0.3; Binding of serum SARS-green to linear peptides of protein M of SARS-CoV Urbani [1]: 0.3; Binding of serum SARS-yellow to linear peptides of protein M of SARS-CoV Urbani [1]: 0.1; Recognition of the peptide by sera of SARS-CoV infected individuals, and form (linear, looped/cyclic) in which it is recognized [1]: recognized in looped/cyclic form; Binding of Control Serum Blood-Bank to Looped peptides of the protein M of SARS-CoV Urbani [2]: 0.7; Binding of Control serum Blood-bank to linear peptides of the protein M of SARS-CoV Urbani [2]: 0.7; Binding of Control serum LUMC to linear peptides of the protein M of SARS-CoV Urbani [2]: 0.3; Binding of Control serum LUMC to looped peptides of the protein M of SARS-CoV Urbani [2]: 0.6; Rabbit serum linear peptides [3]: 0.4; Rabbit serum looped peptides [3]: 0.3"
AQFLYLYALIYFLQC,0.6,0.5,0.5,0.3,0.5,0.4,0.3,0.2,0.6,0.4,0.4,0.5,0.2,0.2,0.4,0.4,0.5,0.5,0.2,0.5,Binding of serum SARS-green to linear peptides of protein X1 of SARS-CoV Urbani [1]: 0.2; Binding of serum SARS-green to looped/cyclic peptide (PEPSCAN-ELISA) [1]: 0.3; Binding of serum SARS-yellow to linear peptides of protein X1 of SARS-CoV Urbani [1]: 0.4; Binding of serum SARS-yellow to looped/cyclic peptide (PEPSCAN-ELISA) [1]: 0.3
QLSLLKVTAFQHQNS,–,–,–,–,–,–,–,–,–,–,–,–,–,–,0.5,0.4,0.6,0.6,0.6,0.5,Binding of serum 1a to linear peptides of protein X2 [1]: 0.5; Binding of serum 1a to looped/cyclic peptides of protein X2 of SARS-CoV Urbani [1]: 0.5; Binding of serum 1b to linear peptides of protein X2 [1]: 0.4; Binding of serum 1b to looped/cyclic peptides of protein X2 of SARS-CoV Urbani [1]: 0.5; Binding of serum 2 to linear peptides of protein X2 [1]: 0.3; Binding of serum 2 to looped/cyclic peptides of protein X2 of SARS-CoV Urbani [1]: 0.3; Binding of serum 6 to linear peptides of protein X2 [1]: 0.4; Binding of serum 6 to looped/cyclic peptides of protein X2 of SARS-CoV Urbani [1]: 0.3; Binding of serum 37 to linear peptides of protein X2 [1]: 0.5; Binding of serum 37 to looped/cyclic peptides of protein X2 of SARS-CoV Urbani [1]: 0.4; Binding of serum 62 to linear peptides of protein X2 [1]: 0.3; Binding of serum 62 to looped/cyclic peptides of protein X2 of SARS-CoV Urbani [1]: 0.6; Binding of serum London to linear peptides of protein X2 [1]: 0.3; Binding of serum London to looped/cyclic peptides of protein X2 of SARS-CoV Urbani [1]: 0.3; Binding of serum SARS-green to linear peptides of protein X2 [1]: 0.1; Binding of serum SARS-green to looped/cyclic peptides of protein X2 of SARS-CoV Urbani [1]: 0.2; Binding of serum SARS-yellow to linear peptides of protein X2 [1]: 0.1; Binding of serum SARS-yellow to looped/cyclic peptides of protein X2 of SARS-CoV Urbani [1]: 0.3
